Test results taken from patent US11905306B2 (priority 2021, dated 2024).

Assays:
SARS-2 [1] = system: SARS-2
SARS-2 [2] = assay: microbe, parasite or virus in culture; assay type: cell-based; details: Severe acute respiratory syndrome coronavirus 2, read-out: SARS-2 VU-EC50 (μM) (A549-hACE2)
Toronto 2 SARS CoV-1 = assay: organism not typed; assay type: cell-based; details: Vero C1008, 72 h, read-out: SARS-1 EC50 (μM) VeroE6
USA_WA1/2020 SARS CoV-2 = assay: microbe, parasite or virus in culture; assay type: cell-based; details: Severe acute respiratory syndrome coronavirus 2, Vero C1008, 72 h, read-out: SARS-2 EC50 (μM) VeroE6
in vitro = details: African green monkey

Q: With `O=C(Nc1cccc(C#Cc2ccccn2)c1)c1ccc(-c2ccn[nH]2)cc1` [Compound 40, 4-(1H-Pyrazol-5-yl)-N-(3-(pyridin-2-ylethynyl)phenyl)benzamide] as the compound, how does the “SARS-2 VU-VTR @ 20 μM (A549-hACE2) (logs)” value (SARS-2 [1]) read?
A: Its value is 3.2 logs.

Q: And the EC50 (SARS-2 [2])?
A: Its EC50 is 0.81 µM.

Q: What about the EC50 (Toronto 2 SARS CoV-1) of the same compound?
A: The EC50 was 0.53 µM.

Q: What about the EC50 (USA_WA1/2020 SARS CoV-2) of the same compound?
A: The EC50 was 1 µM.

Q: And the CC50 (in vitro)?
A: Its CC50 is 38600 nM.

Q: For `CC(C)(C)OC(=O)c1ccc(C(=O)Nc2cccc(C#Cc3ccccn3)c2)cc1` [Compound 44, tert-Butyl 4-((3-(pyridin-2-ylethynyl)phenyl)carbamoyl)benzoate], which “SARS-2 VU-VTR @ 20 μM (A549-hACE2) (logs)” value (SARS-2 [1]) is on record?
A: Its value is 2.41 logs.

Q: And the EC50 (SARS-2 [2])?
A: The EC50 was 0.22 µM.

Q: And the EC50 (Toronto 2 SARS CoV-1)?
A: Its EC50 is 0.07 µM.

Q: And the EC50 (USA_WA1/2020 SARS CoV-2)?
A: Its EC50 is 0.16 µM.

Q: And the CC50 (in vitro)?
A: The CC50 was 24200 nM.

Q: Which “SARS-2 VU-VTR @ 20 μM (A549-hACE2) (logs)” value (SARS-2 [1]) does the source give for `O=C(Nc1cc(C#Cc2ccccn2)cc(OC(F)(F)F)c1)c1ccc(N2CCCCC2=O)cc1` [Compound 50, 4-(2-Oxopiperidin-1-yl)-N-(3-(pyridin-2-ylethynyl)-5-(trifluoromethoxy)phenyl)benzamide] here?
A: Its value is 2.59 logs.

Q: And the EC50 (SARS-2 [2])?
A: Its EC50 is 0.09 µM.

Q: What about the EC50 (Toronto 2 SARS CoV-1) of the same compound?
A: The EC50 was 0.13 µM.

Q: What about the EC50 (USA_WA1/2020 SARS CoV-2) of the same compound?
A: The EC50 was 0.18 µM.

Q: What about the CC50 (in vitro) of the same compound?
A: Its CC50 is > 30000 nM.

Q: With `COC(=O)c1ccc(C(=O)Nc2cccc(C#Cc3ccccn3)c2)cc1` [Compound 43, Methyl 4-((3-(pyridin-2-ylethynyl)phenyl)carbamoyl)benzoate] as the compound, how does the “SARS-2 VU-VTR @ 20 μM (A549-hACE2) (logs)” value (SARS-2 [1]) read?
A: Its value is 2.36 logs.

Q: What about the EC50 (SARS-2 [2]) of the same compound?
A: Its EC50 is 0.58 µM.

Q: What about the EC50 (Toronto 2 SARS CoV-1) of the same compound?
A: Its EC50 is 0.26 µM.

Q: What about the EC50 (USA_WA1/2020 SARS CoV-2) of the same compound?
A: Its EC50 is 0.52 µM.

Q: What about the CC50 (in vitro) of the same compound?
A: Its CC50 is > 30000 nM.

Q: Which “SARS-2 VU-VTR @ 20 μM (A549-hACE2) (logs)” value (SARS-2 [1]) does the source give for `O=C1CCc2cc(NC(=O)c3cccc(C#Cc4ccccn4)c3)ccc2N1` [Compound 54, N-(2-oxo-1,2,3,4-tetrahydroquinolin-6-yl)-3-(pyridin-2-ylethynyl)benzamide] here?
A: Its value is 2.24 logs.

Q: And the EC50 (SARS-2 [2])?
A: The EC50 was 1.42 µM.

Q: What about the EC50 (Toronto 2 SARS CoV-1) of the same compound?
A: Its EC50 is > 30 µM.

Q: And the EC50 (USA_WA1/2020 SARS CoV-2)?
A: Its EC50 is 3 µM.

Q: And the CC50 (in vitro)?
A: The CC50 was > 30000 nM.

Q: With `COc1cc(C#Cc2ccccn2)cc(NC(=O)c2ccc(N3CCCCC3=O)cc2)c1` [Compound 48, N-(3-Methoxy-5-(pyridin-2-ylethynyl)phenyl)-4-(2-oxopiperidin-1-yl)benzamide] as the compound, how does the “SARS-2 VU-VTR @ 20 μM (A549-hACE2) (logs)” value (SARS-2 [1]) read?
A: Its value is 3.08 logs.

Q: And the EC50 (SARS-2 [2])?
A: Its EC50 is 0.1 µM.

Q: What about the EC50 (Toronto 2 SARS CoV-1) of the same compound?
A: Its EC50 is 0.21 µM.

Q: And the EC50 (USA_WA1/2020 SARS CoV-2)?
A: The EC50 was 0.45 µM.

Q: And the CC50 (in vitro)?
A: The CC50 was > 30000 nM.

Q: Which results are given for `CC(=O)Nc1ccc(C(=O)Nc2cccc(C#Cc3ccccn3)c2)cc1F` [Compound 29, 4-Acetamido-3-fluoro-N-(3-(pyridin-2-ylethynyl)phenyl)benzamide]?
A: SARS-2 VU-VTR @ 20 μM (A549-hACE2) (logs) (SARS-2 [1]): 2.6 logs; EC50 (SARS-2 [2]): 1.86 µM; EC50 (Toronto 2 SARS CoV-1): 0.76 µM; EC50 (USA_WA1/2020 SARS CoV-2): 1.07 µM; CC50 (in vitro): > 30000 nM

Q: With `CC(C)OC(=O)c1ccc(NC(=O)c2cccc(C#Cc3ccccn3)c2)cc1` [Compound 65, Isopropyl 4-(3-(pyridin-2-ylethynyl)benzamido)benzoate] as the compound, how does the “SARS-2 VU-VTR @ 20 μM (A549-hACE2) (logs)” value (SARS-2 [1]) read?
A: The value was 2.78 logs.

Q: And the EC50 (SARS-2 [2])?
A: Its EC50 is 0.29 µM.

Q: What about the EC50 (Toronto 2 SARS CoV-1) of the same compound?
A: The EC50 was 0.16 µM.

Q: What about the EC50 (USA_WA1/2020 SARS CoV-2) of the same compound?
A: The EC50 was 0.46 µM.

Q: What about the CC50 (in vitro) of the same compound?
A: The CC50 was > 30000 nM.

Q: Which results are given for `O=C(Nc1ccc(N2CCCCC2=O)cc1)c1cccc(C#Cc2ccccn2)c1` [Compound 59, N-(4-(2-oxopiperidin-1-yl)phenyl)-3-(pyridin-2-ylethynyl)benzamide]?
A: SARS-2 VU-VTR @ 20 μM (A549-hACE2) (logs) (SARS-2 [1]): 2.98 logs; EC50 (SARS-2 [2]): 0.66 µM; EC50 (Toronto 2 SARS CoV-1): 1.05 µM; EC50 (USA_WA1/2020 SARS CoV-2): 2 µM; CC50 (in vitro): > 30000 nM

Q: Which “SARS-2 VU-VTR @ 20 μM (A549-hACE2) (logs)” value (SARS-2 [1]) does the source give for `O=C1CCCc2cc(C(=O)Nc3cccc(C#Cc4ccccn4)c3)ccc2N1` [Compound 4, 2-Oxo-N-(3-(pyridin-2-ylethynyl)phenyl)-2,3,4,5-tetrahydro-1H-benzo[b]azepine-7-carboxamide] here?
A: Its value is 2.55 logs.

Q: And the EC50 (SARS-2 [2])?
A: The EC50 was 1.5 µM.

Q: What about the EC50 (Toronto 2 SARS CoV-1) of the same compound?
A: Its EC50 is 1.39 µM.

Q: And the EC50 (USA_WA1/2020 SARS CoV-2)?
A: Its EC50 is 1.5 µM.

Q: What about the CC50 (in vitro) of the same compound?
A: Its CC50 is 22900 nM.

Q: Which results are given for `CN1C(=O)CCc2cc(C(=O)Nc3cccc(C#Cc4ccccn4)c3)ccc21` [Compound 2, 1-Methyl-2-oxo-N-(3-(pyridin-2-ylethynyl)phenyl)-1,2,3,4-tetrahydroquinoline-6-carboxamide]?
A: SARS-2 VU-VTR @ 20 μM (A549-hACE2) (logs) (SARS-2 [1]): 3.32 logs; EC50 (SARS-2 [2]): 3.59 µM; EC50 (Toronto 2 SARS CoV-1): 1.46 µM; EC50 (USA_WA1/2020 SARS CoV-2): 2.55 µM; CC50 (in vitro): > 30000 nM
